Data as given in article PMC8213762, “An epitope-specific chemically defined nanoparticle vaccine for respiratory syncytial virus” (NPJ Vaccines, 2021).
Entries after “also recorded” stand apart in the source; their conditions may differ.

B1: 10D11: monoclonal antibody against V-306 generated in BALB/c mice (antibody, V domains shown)
VH: QVQLKESGPGLVAPSQSLSITCTVSGFSLTSYDISWIRQPPGKGLEWLGIIWNGGGTNYNSAFMSRLSINKDNSKSQVFLKMNSLQTDDTAIYYCVRGDYDYAWFDYWGQGTLVTVSA
VL: NIMMTQSPSSLTVSAGEKVTMSCKSSQSVLYGSNQKNYLAWYQQKPGQSPKLLIYWASTRDSGVPDRFTGSGSGTDFTLTISSVQAEDLAVYYCHQYLFSWTFGGGTKLEIK

What was measured:
[1] = test system: RSV strain A2; assay: Passive transfer challenge model, lung virus titer by plaque assay; assay type: in vivo; details: cotton rats n = 5, mAb 24 h before challenge with 10^4 PFU RSV A2, doses 1.0, 2.5, 5.0, 15 mg; lungs day 5; ****P ≤ 0.0001 vs PBS
Procedure: The challenge study comparing 10D11 and palivizumab was performed at Sigmovir Biosystems Inc. (MD, USA). Young adult male cotton rats (8, 6–8 weeks old) were treated IM with the mAb (1.0, 2.5, 5.0, or 15 mg doses). All animals were challenged with 100 µl RSV/A2 at 10^5 pfu per animal. After sacrificing the animals, nasal and lung tissue were harvested for viral titration using the RSV/A2 60% PRNT assay described above.

[2] = test system: RSV A Tracy; assay: RSV A Tracy microneutralization (MN) assay of mAbs; assay type: cell-based, respiratory syncytial virus; details: for MN titer: RSV A Tracy, HEp-2 cells, 50% reduction in viral cytopathic effect
Procedure: The RSV A Tracy MN assay was performed by Prof. Pedro Piedra at Baylor College of Medicine, Texas, USA. Heat-inactivated serum samples were analyzed for nAbs against RSV A/Tracy in HEp-2 cells using qualified MN assays as previously described[38]–[41]. nAb titers were defined as the final dilution at which there was a 50% reduction in viral cytopathic effect. Any serum sample resulting in a titer less than the lower limit of detection (LOD) (2.5 log2) was assigned a value of 2 log2.

[3] = test system: palivizumab; assay: ELISA binding of palivizumab to coated V-306, V-306p or SVLP carrier; parameters: species or system humanized murine
Procedure: These ELISA were performed at the Center for Vaccinology (CEVAC), Ghent University and University Hospital, Belgium, based on the methods described above. […] Then 8 twofold serial dilutions of human serum were added. After washing, anti-human IgG Fc mAb-HRP (1/120,000 dilution) was added. After washing, TMB substrate was added. The color reaction was terminated by the addition of 1 N sulphuric acid. After 30 min the OD is read. The optical density for a given sample was used to extrapolate the Ab titer expressed in µg/mL. The coating conditions were optimized using IgG-depleted human serum spiked with known concentrations of palivizumab such that no further increase in signal is observed (saturation point) and no significant signal is seen in the negative control. The sensitivity of the assay was determined using different concentrations of palivizumab (from 0 to 200 µg/mL) and of anti-human IgG HRP-conjugated Ab (see Supplementary Fig. 5). The detection limit was 0.012207 µg/mL palivizumab (0.61 µg/mL in human serum diluted 1/50). The palivizumab-like Ab concentrations found in 20 different human sera (serum samples 001–020) are shown in Supplementary Fig. 5.

Molecule	reduction of RSV replication in lungs, passive transfer [1]	MN titer [2]	detection limit of ELISA ([3]; ELISA with palivizumab standard 0 to 200 µg/mL)	detection limit of ELISA in human serum ([3]; human serum diluted 1/50)	MN potency of 10D11 relative to palivizumab (fold) ([2]; RSV A Tracy MN)
palivizumab: prophylactic humanized murine monoclonal nAb	significantly reduced RSV replication in the lungs in a dose-dependent manner	5.0 log2	0.01221 µg/mL	0.61 µg/mL	
B1	significantly reduced RSV replication in the lungs in a dose-dependent manner; also recorded: reduced lung virus titers in a dose-dependent manner	7.0 log2			approximately fourfold
